{"source": "ChEMBL document CHEMBL4196134", "about": "“Enantiomeric Pairs of Meroterpenoids with Diverse Heterocyclic Systems from Rhododendron nyingchiense” (J Nat Prod, 2018)", "molecular_target": "T1, Tyrosine-protein phosphatase non-receptor type 1 (Homo sapiens, UniProt P18031)", "T1 sequence (P18031 whole entry)": "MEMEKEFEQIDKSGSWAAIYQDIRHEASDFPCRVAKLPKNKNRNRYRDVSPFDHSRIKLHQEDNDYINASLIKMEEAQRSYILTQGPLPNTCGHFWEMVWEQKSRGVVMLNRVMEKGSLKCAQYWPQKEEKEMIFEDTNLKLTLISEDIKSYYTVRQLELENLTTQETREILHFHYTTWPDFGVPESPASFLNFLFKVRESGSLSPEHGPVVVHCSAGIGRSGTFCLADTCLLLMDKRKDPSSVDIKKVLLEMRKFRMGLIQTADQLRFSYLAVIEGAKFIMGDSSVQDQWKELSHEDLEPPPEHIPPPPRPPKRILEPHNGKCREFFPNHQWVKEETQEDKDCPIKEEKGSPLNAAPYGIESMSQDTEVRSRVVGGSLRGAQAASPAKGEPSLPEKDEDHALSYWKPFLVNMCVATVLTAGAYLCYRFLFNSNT", "experiment": "Inhibition of recombinant human PTP1B catalytic domain ([…]) expressed in Escherichia coli BL21-codon plus (DE3) using pNPP as substrate measured continuously for 3 mins by colorimetric method"}
{"smiles": "CC1=CC(=O)C=C2O[C@@]3(C)CC[C@H](C(C)(C)O)[C@H]3[C@H]3O[C@@]123", "values": [{"measurement": "IC50", "value": 38.1, "unit": "µM"}]}
{"smiles": "C=C(C)[C@@H]1CC[C@]2(C)Oc3cc(O)cc(C)c3[C@H]1[C@H]2O", "values": [{"measurement": "IC50", "value": 48.1, "unit": "µM"}]}
{"smiles": "C=C(C)[C@@H]1CC[C@]2(C)Oc3cc(O)cc(C)c3C[C@H]12", "values": [{"measurement": "IC50", "value": 61, "unit": "µM"}]}
{"smiles": "C=C(C)[C@H]1CC[C@@]2(C)Oc3cc(O)cc(C)c3[C@@H]1[C@@H]2O", "values": [{"measurement": "IC50", "value": 29, "unit": "µM"}]}
{"smiles": "Cc1cc(O)cc2c1O[C@H]1OC(C)(C)[C@@H]3CC[C@@](C)(O2)[C@@H]13", "values": [{"measurement": "IC50", "value": 43.6, "unit": "µM"}]}
{"smiles": "Cc1cc(O)cc2c1[C@H]1[C@@H]3[C@@H](CC[C@]3(C)O2)C1(C)C", "values": [{"measurement": "IC50", "value": 58.2, "unit": "µM"}]}
{"smiles": "CC(C)=CCC/C(C)=C/CC/C(C)=C/Cc1c(O)cc(C)cc1O", "note": "[GRIFOLIN]", "values": [{"measurement": "IC50", "value": 5.7, "unit": "µM"}]}
